# In publication PMC4559079 (Journal of Hematology & Oncology, 2015):
# Several values for one entry are separate records, joined by “and”; a condition that tells them apart may be missing. Equal entries are not always repeated. Entries after “also recorded” stand apart in the source; their conditions may differ. Where two headings read alike, the source gives them in different places.
# How the values were obtained:
# [1] = design: method as in PMID 24904120, PMID 25456369; conditions: Western patients, pooled from three studies, single agent or with lenalidomide–dexamethasone, cited from earlier work
# [2] = Plasma PK of ixazomib given with lenalidomide–dexamethasone, phase 1 study in East Asian patients with RRMM (LC/MS/MS, non-compartmental analysis); type: in vivo, human; conditions: for Accumulation ratio: day 15 AUC0–168/day 1 AUC0–168; for DN AUC0–168 / DN C max: dose-normalized; for Tmax / half-life / Cmax / AUC(0-t): human, plasma; for AUC(0-t): read-out: AUC0–168
# Experimental: Plasma PK parameters were calculated for patients in the safety population following administration of ixazomib on cycle 1 day 1 and/or cycle 1 day 15 provided sufficient concentration–time data were available, the patient had received the protocol-specified ixazomib dosing regimen during cycle 1, and no excluded concomitant medications were received during the PK sampling period. PK parameters were estimated using non-compartmental analysis methods from the ixazomib concentration versus time data. The analyses were performed using Phoenix WinNonlin version 6.2 (Pharsight, Princeton, NJ). PK parameters were summarized, as appropriate, using descriptive statistics. DN AUC data in East Asian patients were compared with data for Western patients, pooled from three phase 1/2 trials of patients with RRMM (NCT00963820), NDMM (NCT01217957), and relapsed/refractory AL amyloidosis (NCT01318902).
# [3] = design: method as in PMID 25377318; conditions: Western patients, cited from earlier work
# [4] = ixazomib with lenalidomide and dexamethasone; Western patients with NDMM; cited from earlier work
# [5] = cycle 1 day 1, Chinese, geometric mean (% CV)
# [6] = cycle 1 day 1, Korean, geometric mean (% CV)
# [7] = cycle 1 day 1, Other, geometric mean (% CV)
# [8] = cycle 1 day 15, Chinese, geometric mean (% CV)
# [9] = cycle 1 day 15, Korean, geometric mean (% CV)
# [10] = cycle 1 day 15, Other, geometric mean (% CV)
# [11] = po, cycle 1 day 1, Chinese, geometric mean (% CV), 4.0 mg oral + lenalidomide–dexamethasone
# [12] = po, cycle 1 day 1, Korean, geometric mean (% CV), 4.0 mg oral + lenalidomide–dexamethasone
# [13] = po, cycle 1 day 1, Other, geometric mean (% CV), 4.0 mg oral + lenalidomide–dexamethasone
# [14] = po, cycle 1 day 1, Overall, geometric mean (% CV), 4.0 mg oral + lenalidomide–dexamethasone
# [15] = po, cycle 1 day 15, Chinese, geometric mean (% CV), 4.0 mg oral + lenalidomide–dexamethasone
# [16] = po, cycle 1 day 15, Korean, geometric mean (% CV), 4.0 mg oral + lenalidomide–dexamethasone
# [17] = po, cycle 1 day 15, Other, geometric mean (% CV), 4.0 mg oral + lenalidomide–dexamethasone
# [18] = po, cycle 1 day 15, Overall, geometric mean (% CV), 4.0 mg oral + lenalidomide–dexamethasone
compound,measurement,setting,value
CC(C)C[C@H](NC(=O)CNC(=O)c1cc(Cl)ccc1Cl)B(O)O [ixazomib],geometric mean DN AUC0–168,[1]; day 1 of dosing,152 [95 % CV] ng*h/mL/mg
same,geometric mean DN AUC0–168,[1]; day 15,269 [44 % CV] ng*h/mL/mg
same,"difference in geometric mean DN AUC0–168, East Asian vs Western patients (higher)","[2]; day 1 of dosing, 194 vs 152 ng*h/mL/mg",28%
same,"difference in geometric mean DN AUC0–168, East Asian vs Western patients (higher)","[2]; day 15, 401 vs 269 ng*h/mL/mg",49%
same,Accumulation ratio,"[2]; Chinese, geometric mean (% CV)",2.38 (30)
same,Accumulation ratio,"[2]; Korean, geometric mean (% CV)",2.34 (40)
same,Accumulation ratio,"[2]; Other, geometric mean (% CV)",2.56 (33)
same,DN AUC0–168,[2]; [5],233 (83) h*ng/mL/mg
same,DN C max,[2]; [5],12.6 (102) ng/mL/mg
same,DN AUC0–168,[2]; [6],157 (47) h*ng/mL/mg
same,DN C max,[2]; [6],5.53 (99) ng/mL/mg
same,DN AUC0–168,[2]; [7],180 (63) h*ng/mL/mg
same,DN C max,[2]; [7],8.93 (118) ng/mL/mg
same,DN AUC0–168,"[2]; cycle 1 day 1, Overall East Asian, geometric mean (% CV)",194 [78 % CV] h*ng/mL/mg and 194 (78) h*ng/mL/mg
same,DN C max,"[2]; cycle 1 day 1, Overall, geometric mean (% CV)",8.45 (115) ng/mL/mg
same,DN AUC0–168,[2]; [8],438 (39) h*ng/mL/mg
same,DN C max,[2]; [8],12.6 (71) ng/mL/mg
same,DN AUC0–168,[2]; [9],362 (49) h*ng/mL/mg
same,DN C max,[2]; [9],9.51 (67) ng/mL/mg
same,DN AUC0–168,[2]; [10],383 (81) h*ng/mL/mg
same,DN C max,[2]; [10],10.6 (97) ng/mL/mg
same,DN AUC0–168,"[2]; cycle 1 day 15, Overall East Asian, geometric mean (% CV)",401 [48 % CV] h*ng/mL/mg and 401 (48) h*ng/mL/mg
same,DN C max,"[2]; cycle 1 day 15, Overall, geometric mean (% CV)",11.0 (72) ng/mL/mg
same,Tmax,"[2]; oral, days 1 and 15 of cycle 1, East Asian patients, with lenalidomide–dexamethasone, read-out: median time to maximum plasma concentration",1.5 to 2 h
same,half-life,"[2]; oral, geometric mean, after multiple dosing, overall East Asian patients, read-out: terminal half-life (converted)",6.1 days
same,half-life,"[2]; oral, terminal disposition phase, cycle 1 day 15, Chinese, geometric mean (% CV), read-out: t1/2 (converted)",6.17 days
same,half-life,"[2]; oral, terminal disposition phase, cycle 1 day 15, Korean, geometric mean (% CV), read-out: t1/2 (converted)",6.04 days
same,half-life,"[2]; oral, terminal disposition phase, cycle 1 day 15, Other, geometric mean (% CV), read-out: t1/2 (converted)",6.17 days
same,half-life,"[2]; oral, terminal disposition phase, cycle 1 day 15, Overall, geometric mean (% CV), read-out: t1/2 (converted)",6.12 days
same,Cmax,[2]; [11],50.6 ng/mL
same,AUC(0-t),[2]; [11],933 ng·h/mL
same,Tmax,"[2]; po, cycle 1 day 1, Chinese, median (range), 4.0 mg oral + lenalidomide–dexamethasone, read-out: T max",1.04 h
same,Cmax,[2]; [12],22.1 ng/mL
same,AUC(0-t),[2]; [12],630 ng·h/mL
same,Tmax,"[2]; po, cycle 1 day 1, Korean, median (range), 4.0 mg oral + lenalidomide–dexamethasone, read-out: T max",1.95 h
same,Cmax,[2]; [13],35.7 ng/mL
same,AUC(0-t),[2]; [13],720 ng·h/mL
same,Tmax,"[2]; po, cycle 1 day 1, Other, median (range), 4.0 mg oral + lenalidomide–dexamethasone, read-out: T max",1.75 h
same,Cmax,[2]; [14],33.8 ng/mL
same,AUC(0-t),[2]; [14],776 ng·h/mL
same,Tmax,"[2]; po, cycle 1 day 1, Overall, median (range), 4.0 mg oral + lenalidomide–dexamethasone, read-out: T max",1.5 h
same,Cmax,[2]; [15],50.3 ng/mL
same,AUC(0-t),[2]; [15],1750 ng·h/mL
same,Tmax,"[2]; po, cycle 1 day 15, Chinese, median (range), 4.0 mg oral + lenalidomide–dexamethasone, read-out: T max",2 h
same,Cmax,[2]; [16],38 ng/mL
same,AUC(0-t),[2]; [16],1450 ng·h/mL
same,Tmax,"[2]; po, cycle 1 day 15, Korean, median (range), 4.0 mg oral + lenalidomide–dexamethasone, read-out: T max",2 h
same,Cmax,[2]; [17],42.4 ng/mL
same,AUC(0-t),[2]; [17],1530 ng·h/mL
same,Tmax,"[2]; po, cycle 1 day 15, Other, median (range), 4.0 mg oral + lenalidomide–dexamethasone, read-out: T max",1.25 h
same,Cmax,[2]; [18],43.9 ng/mL
same,AUC(0-t),[2]; [18],1610 ng·h/mL
same,Tmax,"[2]; po, cycle 1 day 15, Overall, median (range), 4.0 mg oral + lenalidomide–dexamethasone, read-out: T max",2 h
same,DLT-evaluable patients experiencing DLTs,"cycle 1, 4.0 mg ixazomib with lenalidomide–dexamethasone",2 of 24
same,dose-limiting toxicities in the first six patients,"starting dose 4.0 mg ixazomib, cycle 1, with lenalidomide–dexamethasone",No dose-limiting toxicities; also recorded: no DLTs
same,recommended phase 2/3 dose (RP2/3D),"weekly oral ixazomib with lenalidomide–dexamethasone, East Asian patients with RRMM",4.0 mg
same,MTD,[3],2.97 mg/m^2
same,"MTD, equated to fixed dose",[3]; equates to 2.97 mg/m^2,5.5 mg
same,recommended phase 2/3 dose (RP2/3D),[4],4.0 mg
